≈ marks a conversion by molar mass, not a printed value. Read-outs that look alike come from different tables or passages of the source.
Experiments:
C. albicans 1040 = assay: In vitro antimycotic activity, macromethod of scalar broth dilutions (YNB); format: cell-based, Candida albicans; conditions: Candida albicans, 1040, 48 h
Method: (§1) The determination of the activity inhibiting the growth of mycetes was evaluated by the macromethod of scalar brothdilutions in geometrical progression (M.R. McGinnis and M.G. Rinaldi, "Antifungal drugs: mechanisms of action, drug resistance, susceptibility testing and assay of activity in biological fluids", in Antibiotic in Laboratory Medicine, Ed. V. Lorian, Baltimora 1991).
(§2) As culture media Yeast Nitrogen Base broth (YNB) and Sabouraud Dextrose broth (SDB) were used for yeasts and moulds, respectively.
(§3) The results obtained in SDB (after incubation at 28°C for 7 days) were expressed as minimum inhibiting concentrations (MIC) the growth of mycetes, while those obtained in YNB (after incubation at 35°C for 48 hours) were expressed as concentrations able to inhibit at 50% (IC50) the growth of the yeast.
(§4) As reference compounds Fluconazole, Itraconazole and Genaconazole were used.

C. neoformans = assay: as above; format: cell-based; conditions: Cryptococcus neoformans, 48 h
Method: as §1, §2, §3, §4

T.mentagrophytes = assay: In vitro antimycotic activity, macromethod of scalar broth dilutions (SDB); format: cell-based, Trychophyton mentagrophytes; conditions: Trichophyton mentagrophytes, 168 h
Method: as §1, §2, §3, §4

A. fumigatus = assay: as above; format: cell-based; conditions: Aspergillus fumigatus, 168 h
Method: as §1, §2, §3, §4

C. krusei (2) = assay: In vitro antimycotic activity, strain panel (Table 2); format: cell-based, Candida krusei; conditions: Pichia kudriavzevii
Method: as §1, §2, §3, §4
(§5) Note to the table: MIC expressed as µg/ml Within brackets the number of tested strains Table 3

C. glabrata (2) = assay: as above; format: cell-based, Candida glabrata; conditions: Nakaseomyces glabratus
Method: as §1, §2, §3, §4, §5

B. capitatus (1) = assay: as above; format: cell-based; conditions: Magnusiomyces capitatus
Method: as §1, §2, §3, §4, §5

C. albicans (7) = assay: as above; format: cell-based; conditions: Candida albicans
Method: as §1, §2, §3, §4, §5

C. neoformans (4) = assay: as above; format: cell-based; conditions: Cryptococcus neoformans
Method: as §1, §2, §3, §4, §5

[1] = test system: C. spp * (5) (C. parapsilosis, lusitaniae, kefyr); assay: as above; format: cell-based; conditions: Lodderomyces parapsilosis
Method: as §1, §2, §3, §4, §5

C. tropicalis (2) = assay: as above; format: cell-based; conditions: Candida tropicalis
Method: as §1, §2, §3, §4, §5

Trichosporon sp. (1) = assay: as above; format: cell-based
Method: as §1, §2, §3, §4, §5

Fusarium sp = assay: In vitro antimycotic activity against recently isolated Fusarium strains (Tables 2 and 3); format: cell-based; conditions: for MIC: Fusarium; for In vitro antimycotic activity: quantity and unit not given in Table 3
Method: as §1, §2, §3, §4, §5

A. niger = assay: In vitro antimycotic activity against recently isolated Aspergillus niger (Table 3); format: cell-based; conditions: A. niger strain 94-6222; quantity and unit not given in Table 3
Method: as §1, §2, §3, §4

Candida albicans 1040 = assay: In vivo antimycotic activity in mice experimentally infected by C. albicans, oral route; set-up: species or system Charles River white mice (CD1 strain)
Method: Charles River white mice (CD1 strain) weighing from 23 to 25 g, normo-feeded with standard diet and water ad libitum were used.
A suspension (0.2 ml containing 2.5x10^7 cells/ml) of Candida albicans 1040 in physiologic solution was injected to each animal by venous route. Immediately after the infection and after 4, 24 and 48 hours, the animals received by oral route (in arabic gum at 2%) doses increasing in a geometrical progression of the compound to be tested. The infected group was used as control.
The observation of the mortality of the mice was prolonged up to 14 days. From the number of survived animals for each concentration the average protective dose (DP50) was calculated by probits analysis (L.Lison - "Statistica applicata alla biologia sperimentale. La programmazione dell'esperimento e l'analisi dei risultati" - Casa Editrice Ambrosiana, 1961).
Compounds R1 and R2 were used as comparative compounds.
Fluconazole and Itraconazole were used as reference compounds.

## CC(COC(F)(F)C(F)F)C(O)(Cn1cncn1)c1ccc(Cl)cc1Cl (racemic) [Compound 1, (±)-1-(1H-1,2,4-triazolyl)-2-hydroxy-2-(2,4-dichlorophenyl)-3-methyl-4-(1,1,2,2-tetrafluoroethoxy)butane]
C. albicans 1040
  IC50: 0.0156 µg/mL (≈ 0.0375 µM)
C. neoformans
  IC50: 0.004 µg/mL (≈ 0.00961 µM)
T.mentagrophytes
  MIC: 0.125 µg/mL (≈ 0.3 µM)
A. fumigatus
  MIC: 8 µg/mL (≈ 19.2 µM)
C. krusei (2)
  MIC: 0.03 to 0.12 µg/mL (≈ 0.0721 to 0.288 µM)
C. glabrata (2)
  MIC: 0.12 µg/mL (≈ 0.288 µM)
B. capitatus (1)
  MIC: ≤ 0.03 µg/mL
C. albicans (7)
  MIC50: ≤ 0.03 µg/mL
  MIC90: 0.06 µg/mL (≈ 0.144 µM)
C. neoformans (4)
  MIC50: ≤ 0.03 µg/mL
  MIC90: ≤ 0.03 µg/mL
[1]
  MIC50: ≤ 0.03 µg/mL
  MIC90: ≤ 0.03 µg/mL
C. tropicalis (2)
  MIC: 0.12 µg/mL (≈ 0.288 µM)
Trichosporon sp. (1); Trichosporon
  MIC: ≤ 0.03 µg/mL
Fusarium sp
  MIC: 0.25 µg/mL (≈ 0.601 µM)
Fusarium sp; Fusarium sp strain 81-256
  In vitro antimycotic activity: 0.25
Fusarium sp; Fusarium sp strain 86-3369
  In vitro antimycotic activity: 0.5
Fusarium sp; Fusarium sp strain 88-2116
  In vitro antimycotic activity: 0.5
Fusarium sp; Fusarium sp strain 946301
  In vitro antimycotic activity: 0.5
A. niger
  In vitro antimycotic activity: ≤0.03
Candida albicans 1040; mice infected by C. albicans, dose 25 mg/kg/os, day 3
  % percentage of survival after day 3: 100%
Candida albicans 1040; mice infected by C. albicans, dose 25 mg/kg/os, day 6
  % percentage of survival after day 6: 100%
Candida albicans 1040; oral route, 8 days from the infection, probits analysis
  PD50 at 8th day: 0.120 mg/kg/os
Candida albicans 1040; oral route, 14 days from the infection, probits analysis
  PD50 at 14th day: 0.74 mg/kg/os

## C[C@H]([C@](O)(Cn1cncn1)c1ccc(F)cc1F)S(C)(=O)=O [Genaconazole, (2R,3R) α-(2,4-difluorophenyl)-α-[1-(methylsulfonyl)ethyl]-1H-1,2,4-triazol-1-ethanol, reference compound]
C. krusei (2); C. krusei, 2 strains, range printed under head MIC50 MIC90, read-out: MIC
  MIC: 16 to 32 µg/mL (≈ 48.3 to 96.6 µM)
B. capitatus (1); B. capitatus, 1 strain, single value under head MIC50 MIC90, read-out: MIC
  MIC: 16 µg/mL (≈ 48.3 µM)
C. albicans (7); C. albicans, 7 strains, read-out: MIC50
  MIC50: 2 µg/mL (≈ 6.04 µM)
C. albicans (7); C. albicans, 7 strains, read-out: MIC90
  MIC90: 32 µg/mL (≈ 96.6 µM)
C. neoformans (4); C. neoformans, 4 strains, read-out: MIC50
  MIC50: 8 µg/mL (≈ 24.1 µM)
C. neoformans (4); C. neoformans, 4 strains, read-out: MIC90
  MIC90: 16 µg/mL (≈ 48.3 µM)
[1]; C. parapsilosis, lusitaniae, kefyr, 5 strains, read-out: MIC50
  MIC50: 0.5 µg/mL (≈ 1.51 µM)
[1]; C. parapsilosis, lusitaniae, kefyr, 5 strains, read-out: MIC90
  MIC90: 1 µg/mL (≈ 3.02 µM)
C. tropicalis (2); C. tropicalis, 2 strains, single value or range printed under head MIC50 MIC90, read-out: MIC
  MIC: > 64 µg/mL
Trichosporon sp. (1); Trichosporon sp., 1 strain, single value under head MIC50 MIC90, read-out: MIC
  MIC: 32 µg/mL (≈ 96.6 µM)
Fusarium sp
  MIC: 64 µg/mL (≈ 193 µM)
Fusarium sp; Fusarium sp strain 81-256
  In vitro antimycotic activity: 64
A. niger
  In vitro antimycotic activity: 32

— patent EP0819124B1, “AZOLE COMPOUNDS WITH ANTIMYCOTIC ACTIVITY FOR HUMAN AND VETERINARY USE” (ZAMBON GROUP S.p.A., priority 1995, dated 1996)
